Earlier results as cited in patent publication US20220323396A1, “COMPOSITIONS AND METHODS FOR TREATING VIRAL INFECTION USING ANTIVIRAL COCKTAILS” (priority 2020, published 2022).

Experiments:
human tryptase = human tryptase (Homo sapiens, UniProt Q15661)
thrombin = thrombin (Homo sapiens, UniProt P00734); conditions: values ranging; potent, specific and reversible inhibition

human tryptase, sequence (Q15661 31-275): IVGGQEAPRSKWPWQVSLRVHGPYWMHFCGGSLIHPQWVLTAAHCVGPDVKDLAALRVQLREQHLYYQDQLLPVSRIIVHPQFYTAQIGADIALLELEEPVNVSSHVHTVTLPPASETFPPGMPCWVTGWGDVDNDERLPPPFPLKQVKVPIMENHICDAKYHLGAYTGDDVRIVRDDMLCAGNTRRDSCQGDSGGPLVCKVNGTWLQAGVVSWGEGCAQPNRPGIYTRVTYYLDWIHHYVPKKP

IC50 (human tryptase): 0.016 nM
IC50 (thrombin): 330 to 1900 nM
SMILES: N=C(N)c1ccc2cc(OC(=O)c3ccc(N=C(N)N)cc3)ccc2c1 [Nafamostat]
